Laboratory results reported in publication PMC12261321, “Inhibitors of the Bacterioferritin Ferredoxin Complex Dysregulate Iron Homeostasis and Kill and Biofilm-Embedded Cells” (ACS Infectious Diseases, 2025).
Values after ≈ are worked out from the molar mass of the structure shown.

Columns and labels:
[1] = Determination of compound aqueous solubility in M63 media; type: physicochemical; settings: in M63 media at 35 °C
Method: Determination of Compound Aqueous Solubility. Compound stocks (100 mM in DMSO) were prepared from […]
powder and then further diluted with DMSO to prepare 20 mM working solutions, which were diluted as needed […]
in DMSO. 15 µL o f the DMSO solution was then d iluted to a final volume o f 1.0 mL in M63 media. Six solutions […]
were prepared for each compound, each with a distinct concentration and 1.5% DMSO (v/v). 700 µL of each […]
compound solution was transferred to a polystyrene 48-well plate (VWR), followed by acquisition of UV-vis […]
spectra (300 to 700 nm) with the aid of an Epoch 2 microplate reader (B i o Te k ). […]
Following the acquisition of UV-vis spectra, each of the wells in the plate was inspected under a […]
microscope for evidence of precipitation. Evidence of precipitation at any given concentration was determined by observing a shift in the baseline of the UV-vis spectra relative to the blank (M63 media) and/or evidence of visual precipitation with the aid of a micros cope. […]

[2] = target: T1, recombinant Pa BfrB (Pseudomonas aeruginosa, UniProt Q9HY79); assay: Dissociation constant (Kd), fluorescence quenching titration of apo Pa BfrB; type: binding, P. aeruginosa
T1 construct: made in house; host or cells: E. coli
T1 sequence (Q9HY79 whole entry): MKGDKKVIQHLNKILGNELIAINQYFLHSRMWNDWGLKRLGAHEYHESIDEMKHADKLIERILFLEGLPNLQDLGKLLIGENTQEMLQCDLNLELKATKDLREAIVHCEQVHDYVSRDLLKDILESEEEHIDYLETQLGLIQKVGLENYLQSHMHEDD
Method: Measurement of Dissociation Constant (Kd) R ecombinant Pa BfrB was expressed in E. coli and purified as previously reported.19 Apo-BfrB (devoid of heme) was utilized for the measurements to prevent heme-driven fluorescence quenching. A 0.5 mL solution contai ning 0.01 µM apo Pa-BfrB in PBS (pH = 7.4) containing0.5% DMSO was plac ed into a 1 cm quartz cuvette wh ere it was titrated with aliq uots of compound dissolved in a 50% (v/v) PBS/DMSO solution. The fluorescence quenching brought by the addition of each aliquot was monitored with the aid of an Agilent Cary Fluorometer , with excitation at 280 nm, emission at 320- 470 nm, 10 x10 nm slit width, and an average of 5 scans per spectrum. Th e binding assay included at least 8 aliquots spanning from ~ 0.1 […]
A control titration was carried out by titrati ng compound into PBS buffer. The Kd was cal culated by fitting the data to equation S4, w here Fb is the fraction bound and Fmax is the fraction bound at saturating compound concentration.
FFbb = FFmmmmmm ? [ccccmmccccccmmcc ]? (S4) […]

[3] = tested on: P. aeruginosa PAO1; assay: Half maximal inhibitory concentration (IC50), planktonic growth (CFU/mL); type: cell-based; settings: M63 media, 18 h
Method: Measurement of Half Maximal Inhibitory Concentration (IC50). IC50 values were determined as reported earlier13 with some modifications. Compound stock solutions in DMSO (100 mM and 10 mM) were prepared from powd er. To prep are the cell susp ensions utilized in the measu rements, starter cultures o f P. aeru ginosa wer e diluted to an optical density at 600 nm (OD600) = 0.005 in fresh LB media (5 mL) and then cultured at 37°C and 220 rpm for 4 h prior to diluting to an OD600 = 0.0001 in M63. A small volume of compound stock solution w as further diluted in DMSO to 30 µL and then diluted in M63 cell suspension to a final volume of 2.0 mL. The resultant solution was placed in a well of a 96-well plate and then serially 2-fold diluted in M63 cell suspension to produce 6 distinct com pound concent rations, each with 1.5% DMSO. Th e plate was co ver ed and incubated for 18 h at 35 °C in a Synergy H1 plate reader (Biotek). The resultant cell cultures were serially diluted in PBS and then plated on PI Agar plates (PIA; BD biosciences) for counting viable cells (CFU/mL). The % growth was calculated from the ratio CFU/mL(t reat ed )/CFU/mL(untreated control). To calculate the IC50 values, the % growth was plotted as a function of compound concentration expressed as log[compound] ( µM), and fitted to equation S1 describing the sigmoid- shaped response pattern, 14 where b is the slope factor, max is the upper asymptote (plateau), and min is the lower asymptote. IC 50 values are the average and standard deviation from three independent experiments , each conducted with thr ee techni cal replicates.

[4] = tested on: A. baumannii 5075; assay: MIC, broth microdilution in M63 media; type: cell-based
Method: (§1) Measurement of Minimum Inhibitory Concentrations (MIC). The MIC of compounds and select ed antibiotics against three strains of A. baumannii (5075, ATCC 17988, and ATCC 19606) were determined via the broth microdilution method according to Clinical and Laboratory Standard Instit ute (CLSI) guidelines,15 but culturing […]
(§2) To establish a 2-fold dilution series of compound, 985 μ L of diluted cells was mixed with 15 μ L of compound […]
(§3) dissolved in DMSO, such that the resultant solution had the highest concentration of compound or antibiotic tested and 1.5% DMSO. To carry out the serial dilution from the highest compound concentration, a 150 μ L solution of higher concentration compound or antibiotic was mixed with 150 μ L of cell suspension containing 1.5% DMSO in the wells of a 96 well plate.
(§4) Th e 96 well plate was in cubated for 20 hat 35 °C with continuous orbital shaking (205 cpm) in an Epoch2 microplate reader (BioTek), monitoring the growth by […]
(§5) following the OD600. […]
(§6) FFFFFF = MMMMMMAA iiii ccllccbbiiiicccciilliiMMMMMMAA+ MMMMMMBB iiii ccllccbbiiiicccciilliiMMMMMMBB S2 Time Kill Assays. Time-kill assays were performed with A. baumannii 507 5 by the broth macro- dilution method in M63- medium containing 1.5% DMSO. An overnight culture was diluted to approximately 5 x10^5 CFU/mL in fresh M63 media. The test solutions were prepared by adding compound (KM-5- 35, or KM-5- 25) dissolved in DMSO to 5 mL of diluted cell suspension to yield a solution of the desired compound concentration and 1.5% DMSO, or by the addition of antibiotic dissolved in water and a small volume of DMSO to produce the desired

[5] = tested on: A. baumannii ATCC 17978; assay: MIC, broth microdilution in M63 media; type: cell-based
Method: as §1, §2, §3, §4, §5, §6

[6] = tested on: A. baumannii ATCC 19606; assay: MIC, broth microdilution in M63 media; type: cell-based
Method: as §1, §2, §3, §4, §5, §6

[7] = M63 media with 1.5% DMSO, 35 °C, aqueous buffer, kinetic from dmso stock
[8] = Acinetobacter baumannii, 5075, 20 h
[9] = Acinetobacter baumannii, ATCC17978, 20 h
[10] = Acinetobacter baumannii, ATCC19606, 20 h

SMILES	solubility at 4 h [1] [µM]	Kd [2] [µM]	IC50 ([3]; planktonic cells) [µM]	MIC ([4]; 20 h) [µM]	MIC ([5]; 20 h) [µM]	MIC ([6]; 20 h) [µM]	solubility at 4 h [1, 7] [µM]	IC50 ([3]; Pseudomonas aeruginosa, PAO1, planktonic cells) [µM]	MIC [4, 8] [µM]	MIC [5, 9] [µM]	MIC [6, 10] [µM]	IC50, P. aeruginosa PAO1 ([3]; planktonic cells)	MIC, A. baumannii 5075 ([4]; 20 h)	MIC, A. baumannii 17978 ([5]; 20 h)	MIC, A. baumannii 19606 ([6]; 20 h)
O=C1NC(=O)c2c(NCc3cc(Br)c(F)cc3O)cccc21 [SB-16-112]	30 (≈ 11 µg/mL)	2 ± 0.6	14 ± 3	20 (≈ 7.3 µg/mL)	20 (≈ 7.3 µg/mL)	20 (≈ 7.3 µg/mL)	–	–	–	–	–	–	–	–	–
O=C1NC(=O)c2c(NCc3cc(Br)cc(F)c3O)cccc21 [SB-16-118]	40 (≈ 14.6 µg/mL)	4 ± 0.3	25 ± 8	20 (≈ 7.3 µg/mL)	30 (≈ 11 µg/mL)	30 (≈ 11 µg/mL)	–	–	–	–	–	–	–	–	–
O=C1NC(=O)c2c(NCc3cc(Br)ccc3O)ccc(Cl)c21 [SB-16-124]	20 (≈ 7.63 µg/mL)	11 ± 1	17 ± 2	20 (≈ 7.63 µg/mL)	20 (≈ 7.63 µg/mL)	20 (≈ 7.63 µg/mL)	–	–	–	–	–	–	–	–	–
O=C1NC(=O)c2c(NCc3cc(Br)cc(O)c3O)cccc21 [SB-16-136]	60 (≈ 21.8 µg/mL)	7 ± 1	20 ± 5	40 (≈ 14.5 µg/mL)	30 (≈ 10.9 µg/mL)	30 (≈ 10.9 µg/mL)	–	–	–	–	–	–	–	–	–
O=C1NC(=O)c2c(NCc3cc(Br)c(O)cc3O)cccc21 [SB-16-137]	80 (≈ 29.1 µg/mL)	9 ± 0.4	37 ± 4	> 80	> 80	> 80	–	–	–	–	–	–	–	–	–
Cc1cc(Cl)cc(CNc2cccc3c2C(=O)NC3=O)c1O [SB-16-156]	40 (≈ 12.7 µg/mL)	7 ± 2	21 ± 5	> 40	> 40	> 40	–	–	–	–	–	–	–	–	–
O=C1NC(=O)c2c(NCc3cc(Cl)c(O)cc3O)cccc21 [SB-16-160]	80 (≈ 25.5 µg/mL)	77 ± 10	45 ± 6	> 80	> 80	> 80	–	–	–	–	–	–	–	–	–
O=C1NC(=O)c2c(NCc3cc(Cl)cc(O)c3O)cccc21 [SB-16-168]	–	12 ± 2	–	–	–	–	40 (≈ 12.7 µg/mL)	15 ± 7	40 (≈ 12.7 µg/mL)	> 40	> 40	–	–	–	–
Cc1cc(CNc2cccc3c2C(=O)NC3=O)c(O)cc1Br [SB-16-183]	20 (≈ 7.22 µg/mL)	3 ± 0.6	13 ± 1	20 (≈ 7.22 µg/mL)	20 (≈ 7.22 µg/mL)	> 20	–	–	–	–	–	–	–	–	–
O=C1NC(=O)c2c(NCc3cc(Br)cc(O)c3O)ccc(Br)c21 [SB-16-250]	20 (≈ 8.84 µg/mL)	15 ± 3	5 ± 2	> 20	> 20	> 20	–	–	–	–	–	–	–	–	–
O=C1NC(=O)c2c(NCc3ccc4c(c3)COC4)cccc21 [SB-17-80]	20 (≈ 5.89 µg/mL)	11 ± 3	–	–	–	–	–	–	–	–	–	Not active	Not active	Not active	Not active
O=C1NC(=O)c2c(NCc3cccc4c3CCN4)cccc21 [SB-17-140]	–	37 ± 1	–	–	–	–	100 (≈ 29.3 µg/mL)	–	> 100	> 100	> 100	Not active	–	–	–
